Data reported in patent US20120029187A1, “HALOALKYLSULFONANILIDE DERIVATIVE” (Nissan Chemical Industries, Ltd., priority 2009, published 2012).

What was measured:
Format in all cases: in vivo
[1] = system: barnyardgrass; experiment: Test Example 1: herbicidal effects in preemergence treatment under submerged conditions; details: dose 2.52 g/a
Procedure, shortened: (§1)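 Submerged conditions, 4 cm water over alluvial soil. Weeds sown and 2.5-leaf rice transplanted; compound applied preemergence to water surface, doses in g per are. Greenhouse, 25 to 30° C., three weeks, then 0–5 mortality rating.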

[2] = system: bulrush; experiment: as above; details: dose 2.52 g/a
Procedure, shortened: as §1

[3] = system: ducksalad; experiment: as above; details: dose 2.52 g/a
Procedure, shortened: as §1

[4] = system: transplanted rice; experiment: Test Example 1: preemergence treatment under submerged conditions, effect on crop; details: dose 2.52 g/a
Procedure, shortened: as §1

[5] = system: barnyardgrass; experiment: Test Example 2: herbicidal effects during the vegetation period under submerged conditions; details: treatment during the vegetation period under submerged conditions; dose 2.52 g/a
Procedure, shortened: (§2)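 Barnyardgrass, bulrush and ducksalad were co-sown in alluvial soil flooded to 4 cm and grown in a greenhouse at 25 to 30° C. At the 1- or 2-leaf stage, water-diluted emulsifiable concentrates went onto the water surface at set doses (g/a). Herbicidal effect was scored three weeks later on a graded scale.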

[6] = system: bulrush; experiment: as above; details: treatment during the vegetation period under submerged conditions; dose 2.52 g/a
Procedure, shortened: as §2

[7] = system: ducksalad; experiment: as above; details: treatment during the vegetation period under submerged conditions; dose 2.52 g/a
Procedure, shortened: as §2

[8] = system: Italian ryegrass; experiment: Test Example 3: herbicidal effects in soil treatment; details: dose 3.2 g/a
Procedure, shortened: (§3)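 Seeds were sown in sterilized diluvial soil and covered with about 1.5 cm of soil. Compounds, formulated as emulsifiable concentrates and diluted with water, were sprayed evenly over the soil surface at set doses in g/a. Herbicidal effect was scored on a rating scale three weeks later.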

[9] = system: barnyardgrass; experiment: as above; details: dose 3.2 g/a
Procedure, shortened: as §3

[10] = system: common chickweed; experiment: as above; details: dose 3.2 g/a
Procedure, shortened: as §3

[11] = system: common lambsquater; experiment: as above; details: dose 3.2 g/a
Procedure, shortened: as §3

[12] = system: common ragweed; experiment: as above; details: dose 3.2 g/a
Procedure, shortened: as §3

[13] = system: giant foxtail; experiment: as above; details: dose 3.2 g/a
Procedure, shortened: as §3

[14] = system: large crabgrass; experiment: as above; details: dose 3.2 g/a
Procedure, shortened: as §3

[15] = system: posumbu knotweed; experiment: as above; details: dose 3.2 g/a
Procedure, shortened: as §3

[16] = system: redroot pigweed; experiment: as above; details: dose 3.2 g/a
Procedure, shortened: as §3

[17] = system: velvetleaf; experiment: as above; details: dose 3.2 g/a
Procedure, shortened: as §3

[18] = system: water foxtail; experiment: as above; details: dose 3.2 g/a
Procedure, shortened: as §3

[19] = system: Italian ryegrass; experiment: Test Example 4: herbicidal effect in foliage treatment; details: dose 3.2 g/a, three weeks after application
Procedure, shortened: (§4)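 Weeds and crops sown in sterilized diluvial soil under ~1.5 cm cover and grown in greenhouse at 25 to 30° C. At 14 days, water-diluted emulsifiable concentrate sprayed onto foliage at set doses (g/a); herbicidal effect scored on a rating scale three weeks after application.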

[20] = system: barnyardgrass; experiment: as above; details: dose 3.2 g/a, three weeks after application
Procedure, shortened: as §4

[21] = system: beadstraw; experiment: as above; details: dose 3.2 g/a, three weeks after application
Procedure, shortened: as §4

[22] = system: common chickweed; experiment: as above; details: dose 3.2 g/a, three weeks after application
Procedure, shortened: as §4

[23] = system: common lambsquater; experiment: as above; details: dose 3.2 g/a, three weeks after application
Procedure, shortened: as §4

[24] = system: common ragweed; experiment: as above; details: dose 3.2 g/a, three weeks after application
Procedure, shortened: as §4

[25] = system: giant foxtail; experiment: as above; details: dose 3.2 g/a, three weeks after application
Procedure, shortened: as §4

[26] = system: large crabgrass; experiment: as above; details: dose 3.2 g/a, three weeks after application
Procedure, shortened: as §4

[27] = system: posumbu knotweed; experiment: as above; details: dose 3.2 g/a, three weeks after application
Procedure, shortened: as §4

[28] = system: redroot pigweed; experiment: as above; details: dose 3.2 g/a, three weeks after application
Procedure, shortened: as §4

[29] = system: velvetleaf; experiment: as above; details: dose 3.2 g/a, three weeks after application
Procedure, shortened: as §4

[30] = system: water foxtail; experiment: as above; details: dose 3.2 g/a, three weeks after application
Procedure, shortened: as §4

| SMILES | A: barnyardgrass, herbicidal effect (evaluation scale 0-5) [1] | B: bulrush, herbicidal effect (evaluation scale 0-5) [2] | C: ducksalad, herbicidal effect (evaluation scale 0-5) [3] | a: transplanted rice, effect on crop (evaluation scale 0-5) [4] | A: barnyardgrass, herbicidal effect (evaluation scale 0-5) [5] | B: bulrush, herbicidal effect (evaluation scale 0-5) [6] | C: ducksalad, herbicidal effect (evaluation scale 0-5) [7] | H: Italian ryegrass, herbicidal effect (evaluation scale 0-5) [8] | A: barnyardgrass, herbicidal effect (evaluation scale 0-5) [9] | N: common chickweed, herbicidal effect (evaluation scale 0-5) [10] | L: common lambsquater, herbicidal effect (evaluation scale 0-5) [11] | J: common ragweed, herbicidal effect (evaluation scale 0-5) [12] | E: giant foxtail, herbicidal effect (evaluation scale 0-5) [13] | D: large crabgrass, herbicidal effect (evaluation scale 0-5) [14] | M: posumbu knotweed, herbicidal effect (evaluation scale 0-5) [15] | K: redroot pigweed, herbicidal effect (evaluation scale 0-5) [16] | I: velvetleaf, herbicidal effect (evaluation scale 0-5) [17] | G: water foxtail, herbicidal effect (evaluation scale 0-5) [18] | H: Italian ryegrass, herbicidal effect [19] | A: barnyardgrass, herbicidal effect [20] | also measured |
| --- | --- | --- | --- | --- | --- | --- | --- | --- | --- | --- | --- | --- | --- | --- | --- | --- | --- | --- | --- | --- | --- |
| CC1(CC(F)(F)F)CC(=O)N(Cc2ccccc2NS(=O)(=O)C(F)(F)F)CO1 (stereo not drawn) [II-51] | 5 (mortality of 90% or above (nearly complete death)) | 5 (mortality of 90% or above (nearly complete death)) | 5 (mortality of 90% or above (nearly complete death)) | 0 (mortality of less than 5% (almost ineffective)) | 5 (mortality of 90% or above (nearly complete death)) | 4 (mortality of at least 70% and less than 90%) | 5 (mortality of 90% or above (nearly complete death)) | 3 (mortality of at least 40% and less than 70%) | 5 (mortality of 90% or above (nearly complete death)) | 5 (mortality of 90% or above (nearly complete death)) | 0 (mortality of less than 5% (almost ineffective)) | 4 (mortality of at least 70% and less than 90%) | 4 (mortality of at least 70% and less than 90%) | 5 (mortality of 90% or above (nearly complete death)) | 5 (mortality of 90% or above (nearly complete death)) | 0 (mortality of less than 5% (almost ineffective)) | 5 (mortality of 90% or above (nearly complete death)) | 5 (mortality of 90% or above (nearly complete death)) | 3 (mortality of at least 40% and less than 70%) | 5 (mortality of 90% or above (nearly complete death)) | O: beadstraw, herbicidal effect [21]: 4 (mortality of at least 70% and less than 90%); N: common chickweed, herbicidal effect [22]: 5 (mortality of 90% or above (nearly complete death)); L: common lambsquater, herbicidal effect [23]: 3 (mortality of at least 40% and less than 70%); J: common ragweed, herbicidal effect [24]: 3 (mortality of at least 40% and less than 70%); E: giant foxtail, herbicidal effect [25]: 4 (mortality of at least 70% and less than 90%); D: large crabgrass, herbicidal effect [26]: 4 (mortality of at least 70% and less than 90%); M: posumbu knotweed, herbicidal effect [27]: 5 (mortality of 90% or above (nearly complete death)); K: redroot pigweed, herbicidal effect [28]: 0 (mortality of less than 5% (almost ineffective)); I: velvetleaf, herbicidal effect [29]: 4 (mortality of at least 70% and less than 90%); G: water foxtail, herbicidal effect [30]: 5 (mortality of 90% or above (nearly complete death)) |
| CCOC(=O)N(c1ccccc1CN1COC(C)(CC(F)(F)F)CC1=O)S(=O)(=O)C(F)(F)F (stereo not drawn) [II-53] | 5 (mortality of 90% or above (nearly complete death)) | 5 (mortality of 90% or above (nearly complete death)) | 5 (mortality of 90% or above (nearly complete death)) | 0 (mortality of less than 5% (almost ineffective)) | 5 (mortality of 90% or above (nearly complete death)) | 5 (mortality of 90% or above (nearly complete death)) | 5 (mortality of 90% or above (nearly complete death)) | 3 (mortality of at least 40% and less than 70%) | 5 (mortality of 90% or above (nearly complete death)) | 5 (mortality of 90% or above (nearly complete death)) | 0 (mortality of less than 5% (almost ineffective)) | 4 (mortality of at least 70% and less than 90%) | 5 (mortality of 90% or above (nearly complete death)) | 5 (mortality of 90% or above (nearly complete death)) | 5 (mortality of 90% or above (nearly complete death)) | 0 (mortality of less than 5% (almost ineffective)) | 5 (mortality of 90% or above (nearly complete death)) | 5 (mortality of 90% or above (nearly complete death)) | 4 (mortality of at least 70% and less than 90%) | 4 (mortality of at least 70% and less than 90%) | O: beadstraw, herbicidal effect [21]: 5 (mortality of 90% or above (nearly complete death)); N: common chickweed, herbicidal effect [22]: 5 (mortality of 90% or above (nearly complete death)); L: common lambsquater, herbicidal effect [23]: 2 (mortality of at least 20% and less than 40%); J: common ragweed, herbicidal effect [24]: 3 (mortality of at least 40% and less than 70%); E: giant foxtail, herbicidal effect [25]: 3 (mortality of at least 40% and less than 70%); D: large crabgrass, herbicidal effect [26]: 3 (mortality of at least 40% and less than 70%); M: posumbu knotweed, herbicidal effect [27]: 4 (mortality of at least 70% and less than 90%); K: redroot pigweed, herbicidal effect [28]: 0 (mortality of less than 5% (almost ineffective)); I: velvetleaf, herbicidal effect [29]: 4 (mortality of at least 70% and less than 90%); G: water foxtail, herbicidal effect [30]: 5 (mortality of 90% or above (nearly complete death)) |
